One test relates to Jurkat cell line. In words: PARP cellular chemopotentiation assay (MTS, with/without TMZ). The following applies: Chemopotentiation factor: ratio of EC50 values of Jurkat cells co-treated without and with 100 μM TMZ; 96 hours. In kind it is cell-based. The procedure:
Potentiation Factor (PF50) Determination from PARP Cellular Chemopotentiation Assay
Jurkat cell line was maintained according to the supplier (American Type Culture Collection (Rockville, Md.)). Cells were seeded in 96-well tissue culture microplates at 10,000 cells per well and cultured for 24 hours prior to addition of compounds, TMZ (Temozolomide) or DMSO (dimethylsulfoxide) vehicle. After 96 hours of treatment, the conversion of MTS ([3-(4,5-dimethylthiazol-2-yl)-5-(3-carboxymethoxyphenyl)-2-(4-sulfophenyl)-2H-tetrazolium, inner salt], Promega, Madison, Wis.) by metabolically active cells was determined through measuring the OD490 nm with a Spectramax microplate reader (Molecular Devices, San Diego, Calif.). To generate concentration-response curves, cells were treated in duplicate with a range of serial compound dilutions (final DMSO concentration was 0.5%) in the absence or presence of 100 μM TMZ chemoreagent. The percentage of viable cells per well was calculated by correction for background and normalizing against DMSO-treated cells. EC50 values for inhibition of cell viability were calculated using XLfit4 MicroSoft Excel curve-fitting software. Chemopotentiation factor PF50 was calculated as the ratio of EC50 values of cells co-treated without and with TMZ, respectively.

A further test addresses T1, PARP (Homo sapiens, UniProt P09874).
T1 construct: purchased Trevigen 4684-096-K HT (kit); 4684-096-01 (PARP enzyme)
In words: PARP ELISA (ELISA-based colorimetric PARP/Apoptosis Assay kit, Trevigen). In kind it is biochemical. The settings on record: pIC50=-log10 IC50, IC50 in mol/L; inhibition of PARP catalytic activity. On the procedure:
Inhibition Constant (IC50) from PARP ELISA
After 10 minutes of catalysis the reaction is quenched by solvent aspiration followed by irrigation of the assay wells 4 times with phosphate buffered saline (PBS) containing 0.1% t-Octylphenoxypolyethoxyethanol (Triton® X-100). Mouse Anti-poly ADP ribose (PAR) monoclonal antibody, goat antimouse immunoglobulin G (IgG)-horse radish peroxidase (HRP) conjugate and HRP substrate are added according to the manufacture's specifications to generate a colorimetric signal proportional to PARP catalytic activity.
A general note: ELISA stands for enzyme-linked immunosorbent assay.

For test [1], the target named is T2, catalytic domain of Human PARP (Homo sapiens, UniProt P09874).
T2 construct: The catalytic domain of Human PARP was cloned and prepared; made in house
T2 sequence (P09874 788-1014 limits assumed): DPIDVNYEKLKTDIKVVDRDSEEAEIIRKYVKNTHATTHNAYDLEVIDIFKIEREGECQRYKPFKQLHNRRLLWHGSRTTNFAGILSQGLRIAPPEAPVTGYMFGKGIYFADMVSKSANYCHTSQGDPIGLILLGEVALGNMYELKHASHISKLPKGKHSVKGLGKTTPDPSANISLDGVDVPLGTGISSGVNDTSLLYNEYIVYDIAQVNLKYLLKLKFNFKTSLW
In words: Biacore surface plasmon resonance affinity assay. In kind it is binding. In a few lines:
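Human PARP catalytic domain amine-coupled to CM5 chip; compounds run as 2-fold series in HBS-P with 1% DMSO, 0.5 mM TCEP, 5 mM MgCl2.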
On the technique in general: Surface plasmon resonance follows binding to a sensor surface in real time, without labels.

Setting [2] is: pKD=-log10 KD, KD in mol/L, Biacore T100, 25° C., read-out: pKD (converted).

This note sets out measurements from US8669249B2, “Poly (ADP-ribose) polymerase (PARP) inhibitors” (Takeda Pharmaceutical Company Limited, priority 2009, dated 2014).

Like-named read-outs stand apart in the source and are kept apart here.

Broadly, the IC50 is the point on the concentration scale where inhibition reaches its midpoint. Lower therefore signals higher potency.

T1 sequence (P09874 whole entry): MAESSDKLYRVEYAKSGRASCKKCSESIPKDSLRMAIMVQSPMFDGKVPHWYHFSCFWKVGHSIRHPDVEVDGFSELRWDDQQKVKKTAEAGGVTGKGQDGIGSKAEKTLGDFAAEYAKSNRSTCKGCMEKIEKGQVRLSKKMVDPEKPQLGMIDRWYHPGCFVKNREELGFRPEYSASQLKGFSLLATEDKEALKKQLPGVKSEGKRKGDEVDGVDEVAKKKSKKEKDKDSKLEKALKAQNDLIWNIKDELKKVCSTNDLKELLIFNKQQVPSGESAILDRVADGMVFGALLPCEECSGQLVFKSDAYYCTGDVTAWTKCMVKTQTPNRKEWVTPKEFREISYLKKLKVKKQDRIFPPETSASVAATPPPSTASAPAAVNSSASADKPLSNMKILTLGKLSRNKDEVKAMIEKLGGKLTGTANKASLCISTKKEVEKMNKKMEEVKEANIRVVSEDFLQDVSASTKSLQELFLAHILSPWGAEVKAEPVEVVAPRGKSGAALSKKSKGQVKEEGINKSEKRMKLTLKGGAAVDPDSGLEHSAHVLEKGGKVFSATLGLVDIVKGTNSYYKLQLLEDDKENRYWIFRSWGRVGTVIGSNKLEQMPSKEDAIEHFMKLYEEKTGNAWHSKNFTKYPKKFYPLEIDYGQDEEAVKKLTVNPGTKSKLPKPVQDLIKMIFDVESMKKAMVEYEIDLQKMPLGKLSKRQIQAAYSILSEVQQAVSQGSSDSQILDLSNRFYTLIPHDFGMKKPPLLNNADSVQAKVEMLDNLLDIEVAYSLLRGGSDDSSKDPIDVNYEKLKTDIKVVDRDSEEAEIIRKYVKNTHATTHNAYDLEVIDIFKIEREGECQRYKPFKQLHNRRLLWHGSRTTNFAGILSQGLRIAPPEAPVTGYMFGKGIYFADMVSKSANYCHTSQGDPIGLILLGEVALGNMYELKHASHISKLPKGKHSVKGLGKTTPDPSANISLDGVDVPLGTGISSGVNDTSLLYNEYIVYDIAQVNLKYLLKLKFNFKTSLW

As for `CNC(=O)c1ccc(N2CCN(Cc3cc(C)c4c(c3)NC(=O)C(C)O4)CC2)c(F)c1` (stereo not drawn) [Compound 380, 4-(4-((2,8-Dimethyl-3-oxo-3,4-dihydro-2H-benzo[b][1,4]oxazin-6-yl)methyl)piperazin-1-yl)-3-fluoro-N-methylbenzamide], the PF50 in the test on Jurkat cell line is on record as 4.0. Besides, at PARP, the IC50 is 50.1 nM.
The corresponding values for `CC1Oc2cc(F)c(CN3CCN(c4ccc(C#N)cc4)CC3)cc2NC1=O` (stereo not drawn) [Compound 339, 4-(4-((7-Fluoro-2-methyl-3-oxo-3,4-dihydro-2H-benzo[b][1,4]oxazin-6-yl)methyl)piperazin-1-yl)benzonitrile] are 1.0 and 79.4 nM.
The corresponding values for `COc1cc(CN2CCN(c3ccc(C(=O)NC4CC4)cc3C)CC2)cc2c1OCC(=O)N2` [Compound 375, N-cyclopropyl-4-(4-((8-methoxy-3-oxo-3,4-dihydro-2H-benzo[b][1,4]oxazin-6-yl)methyl)piperazin-1-yl)-3-methylbenzamide] are more than 2.0 and 15.8 nM.
For `CNC(=O)c1ccc(N2CCN(Cc3cc(Cl)c4c(c3)NC(=O)C(C)O4)CC2)cc1` (stereo not drawn) [Compound 308, 4-(4-((8-Chloro-2-methyl-3-oxo-3,4-dihydro-2H-benzo[b][1,4]oxazin-6-yl)methyl)piperazin-1-yl)-N-methylbenzamide] the same measures were 6.3 and 20 nM.
Regarding `CCNC(=O)c1ccc(N2CCN(Cc3cc(C)c4c(c3)NC(=O)C(C)O4)CC2)c(F)c1` (stereo not drawn) [Compound 381, 4-(4-((2,8-Dimethyl-3-oxo-3,4-dihydro-2H-benzo[b][1,4]oxazin-6-yl)methyl)piperazin-1-yl)-N-ethyl-3-fluorobenzamide], the PF50 in the test with Jurkat cell line is more than 2. In addition, the IC50 against PARP is 39.8 nM.
The corresponding values for `CC(=O)c1ccc(N2CCN(Cc3ccc4c(c3)NC(=O)C(C)O4)CC2)cc1` (stereo not drawn) [Compound 218, 6-((4-(4-Acetylphenyl)piperazin-1-yl)methyl)-2-methyl-2H-benzo[b][1,4]oxazin-3(4H)-one] are “≦0.9” and not below 126 nM.
For `CC1Oc2cc(F)c(CN3CCN(c4ccc(C#N)cn4)CC3)cc2NC1=O` (stereo not drawn) [Compound 340, 6-(4-((7-Fluoro-2-methyl-3-oxo-3,4-dihydro-2H-benzo[b][1,4]oxazin-6-yl)methyl)piperazin-1-yl)nicotinonitrile] the same measures were 0.9 and 63.1 nM.
For `CCNC(=O)c1ccc(N2CCN(Cc3cc4c(c(OC)c3)OC(C)C(=O)N4)CC2)c(Cl)c1` (stereo not drawn) [Compound 361, 3-Chloro-N-ethyl-4-(4-((8-methoxy-2-methyl-3-oxo-3,4-dihydro-2H-benzo[b][1,4]oxazin-6-yl)methyl)piperazin-1-yl)benzamide] the same measures were more than 3500 and 25.1 nM.
`CC1Oc2c(cc(CN3CCN(c4ccc(C(=O)NC5CC5)cc4)CC3)cc2C2CC2)NC1=O` (stereo not drawn) [Compound 348, N-Cyclopropyl-4-(4-((8-cyclopropyl-2-methyl-3-oxo-3,4-dihydro-2H-benzo[b][1,4]oxazin-6-yl)methyl)piperazin-1-yl)benzamide]: the PF50 with Jurkat cell line is reported as more than 5. Moreover, on PARP, the IC50 is 251 nM.
As for `CNC(=O)c1ccc(N2CCN(Cc3cc4c(c(C5CC5)c3)OC(C)C(=O)N4)CC2)cc1` (stereo not drawn) [Compound 347, 4-(4-((8-Cyclopropyl-2-methyl-3-oxo-3,4-dihydro-2H-benzo[b][1,4]oxazin-6-yl)methyl)piperazin-1-yl)-N-methylbenzamide], the PF50 with Jurkat cell line is listed as 10.1. Moreover, the IC50 at PARP is 100 nM.
With `CCOc1cc(CN2CCN(c3ccc(C(=O)NC4CC4)cc3C)CC2)cc2c1OC(C)C(=O)N2` (stereo not drawn) [Compound 402, N-Cyclopropyl-4-(4-((8-ethoxy-2-methyl-3-oxo-3,4-dihydro-2H-benzo[b][1,4]oxazin-6-yl)methyl)piperazin-1-yl)-3-methylbenzamide], the PF50 with Jurkat cell line is recorded as more than 10000. This compound had a 50% inhibitory concentration (IC50) against PARP of 39.8 nM.
For `CNC(=O)c1ccc(N2CCN(Cc3cc4c(cc3F)OC(C)C(=O)N4)CC2)cc1` (stereo not drawn) [Compound 335, 4-(4-((7-Fluoro-2-methyl-3-oxo-3,4-dihydro-2H-benzo[b][1,4]oxazin-6-yl)methyl)piperazin-1-yl)-N-methylbenzamide] the same measures were 0.3 and 63.1 nM.
For `CCNC(=O)c1ccc(N2CCN(Cc3cc4c(c(OC(F)F)c3)OC(C)C(=O)N4)CC2)cc1` (stereo not drawn) [Compound 404, 4-(4-((8-(Difluoromethoxy)-2-methyl-3-oxo-3,4-dihydro-2H-benzo[b][1,4]oxazin-6-yl)methyl)piperazin-1-yl)-N-ethylbenzamide] the same measures were more than 2.0 and 31.6 nM.
For the compound `CC1Oc2ccc(CN3CCN(c4ccc(C(=O)NCC5CC5)cc4)CC3)cc2NC1=O` (stereo not drawn) [Compound 226, N-(Cyclopropylmethyl)-4-(4-((2-methyl-3-oxo-3,4-dihydro-2H-benzo[b][1,4]oxazin-6-yl)methyl)piperazin-1-yl)benzamide], the PF50 entry in the test with Jurkat cell line is given as “≦0.9”. Besides, at PARP, the IC50 is 39.8 to 100 nM.
For `CNC(=O)c1ccc(N2CCN(Cc3cc4c(c(OC)c3)OC(C)C(=O)N4)CC2)c(Cl)c1` (stereo not drawn) [Compound 366, 3-Chloro-4-(4-((8-methoxy-2-methyl-3-oxo-3,4-dihydro-2H-benzo[b][1,4]oxazin-6-yl)methyl)piperazin-1-yl)-N-methylbenzamide] the same measures were 4.6 and 25.1 nM.
For `CNC(=O)c1ccc(N2CCN(Cc3cc4c(c(-c5ccccc5)c3)OC(C)C(=O)N4)CC2)cc1` (stereo not drawn) [Compound 350, N-Methyl-4-(4-((2-methyl-3-oxo-8-phenyl-3,4-dihydro-2H-benzo[b][1,4]oxazin-6-yl)methyl)piperazin-1-yl)benzamide] the same measures were 2.1 and more than 200 nM.
The corresponding values for `CNC(=O)c1ccc(N2CCN(Cc3cc(C)c4c(c3)NC(=O)C(C)O4)CC2)c(Cl)c1` (stereo not drawn) [Compound 383, 3-Chloro-4-(4-((2,8-dimethyl-3-oxo-3,4-dihydro-2H-benzo[b][1,4]oxazin-6-yl)methyl)piperazin-1-yl)-N-methylbenzamide] are 3.2 and 50.1 nM.
Take `Cc1cc(C(=O)NC2CC2)ccc1N1CCN(Cc2cc(C)c3c(c2)NC(=O)C(C)O3)CC1` (stereo not drawn) [Compound 386, N-Cyclopropyl-4-(4-((2,8-dimethyl-3-oxo-3,4-dihydro-2H-benzo[b][1,4]oxazin-6-yl)methyl)piperazin-1-yl)-3-methylbenzamide]: in the test with Jurkat cell line, the PF50 is given as more than 5.0. For the same compound, on PARP, the half-inhibitory concentration (IC50) is 50.1 nM.
The corresponding values for `CCNC(=O)c1ccc(N2CCN(Cc3cc(O)c4c(c3)NC(=O)C(C)O4)CC2)cc1` (stereo not drawn) [Compound 359, N-Ethyl-4-(4-((8-hydroxy-2-methyl-3-oxo-3,4-dihydro-2H-benzo[b][1,4]oxazin-6-yl)methyl)piperazin-1-yl)benzamide] are more than 6.0 and 15.8 nM.
Consider `CCNC(=O)c1ccc(N2CCN(Cc3cc4c(c(OC)c3)OCC(=O)N4)CC2)c(Cl)c1` [Compound 370, 3-Chloro-N-ethyl-4-(4-((8-methoxy-3-oxo-3,4-dihydro-2H-benzo[b][1,4]oxazin-6-yl)methyl)piperazin-1-yl)benzamide], for which the PF50 with Jurkat cell line is recorded as 5.0. The IC50 at PARP is 79.4 nM.
With `COc1cc(CN2CC=C(c3ccccc3)CC2)cc2c1OC(C)C(=O)N2` (stereo not drawn) [Compound 158, 8-Methoxy-2-methyl-6-((4-phenyl-5,6-dihydropyridin-1(2H)-yl)methyl)-2H-benzo[b][1,4]oxazin-3(4H)-one], the Kd in test [1] (setting [2]) is 12.6 to 100 nM. The PF50 with Jurkat cell line is 1.0-1.9.
`CC1Oc2ccc(CN3CCN(c4ccccc4O)CC3)cc2NC1=O` (stereo not drawn) [Compound 57, 6-((4-(2-Hydroxyphenyl)piperazin-1-yl)methyl)-2-methyl-2H-benzo[b][1,4]oxazin-3(4H)-one]: the Kd in test [1] (setting [2]) was 12.6 to 100 nM. In addition, in the test with Jurkat cell line, the PF50 is reported as 1.0-1.9.
The corresponding values for `CC1Oc2ccc(CN3CCN(c4ccc(N)cc4)CC3)cc2NC1=O` (stereo not drawn) [Compound 53, 6-((4-(4-Aminophenyl)piperazin-1-yl)methyl)-2-methyl-2H-benzo[b][1,4]oxazin-3(4H)-one] are 12.6 to 100 nM and “≦0.9”.
As to `O=C1COc2ccc(CN3CC=C(c4ccc(Cl)cc4)CC3)cc2N1` [Compound 54, 6-((4-(4-Chlorophenyl)-5,6-dihydropyridin-1(2H)-yl)methyl)-2H-benzo[b][1,4]oxazin-3(4H)-one], the Kd in test [1] is 12.6 to 100 nM. Moreover, in the test on Jurkat cell line, the PF50 entry is recorded as “≦0.9”.
